From patent US9987243B2, “Use of trans-palmitoleate in identifying and treating metabolic disease” (Trustees of Tufts College, priority 2010, dated 2018)

Key:
[1] = test system: 2,985 participants free of prevalent diabetes at baseline; test: Cardiovascular Health Study: plasma phospholipid fatty acids and incident diabetes mellitus (Cox proportional-hazards); type: in vivo, human
Procedure: Plasma phospholipid fatty acids, anthropometry, blood lipids, inflammatory markers, and glucose-insulin levels were measured at baseline using standardized methods. Independent determinants of trans-palmitoleate and relationships of trans-palmitoleate with metabolic risk factors were investigated using multivariable-adjusted linear regression.
Multivariable model adjusted for age (years), gender (male/female), race (white/nonwhite), education (<high school, high school, some college, college graduate), enrollment site (four sites), smoking (never, former, current), body mass index (kg/m^2), waist circumference (cm), coronary heart disease (yes/no), physical activity (kcal/wk), alcohol use (six categories), and consumption of carbohydrate (% energy), protein (% energy), red meat (servings/week), whole-fat dairy foods (6 categories), low-fat dairy foods (five categories), and total energy (kcal/d).
Participants were followed by means of annual examinations for 10 years with interim and subsequent 6-month telephone contacts. Ives et al., 5 Ann. Epidemiol. […] At each visit, detailed medication information was obtained using medication inventories. At baseline, study interviewers visited participants in their homes and asked to see all prescription medications they had taken in the previous 2 weeks. At follow-up exams, participants brought to clinic all prescription medications taken in the previous 2 weeks. Drug names, doses, and frequencies were coded according to prescription medication Medispan files.
Relationships between phospholipid fatty acids were evaluated using Spearman correlation. Trans-palmitoleate levels were evaluated in sex-specific quintiles as indicator variables and continuously per SD difference. Independent demographic and lifestyle determinants of trans-palmitoleate were evaluated using multivariable-adjusted linear regression with trans-palmitoleate as the dependent variable. Multivariable-adjusted relationships of trans-palmitoleate with metabolic risk factors (transformed for normality as appropriate) were evaluated using linear regression with trans-palmitoleate as the independent variable. Quintiles were evaluated as ordinal variables to assess trend, to assess effect modification using the Wald test for a multiplicative interaction term, and to assess differences in baseline characteristics by means of linear or logistic regression. […] To minimize potential confounding, covariates were selected based on biologic interest, being well-established risk factors for metabolic risk, or associations with exposures/outcomes in the present cohort. […] Analyses were performed using Stata10.1 (College Station, Tex.), two-tailed alpha=0.05.

[2] = test system: OB/OB, wild-type, and high-fat diet mice; test: Tolerability of oral gavage administration in mice; type: in vivo; settings: 200 mg/kg/day to 2 g/kg/day for 5 weeks in PEG 300
Procedure: Trans-palmitoleate was obtained in pure, powdered form from Nu-Check Prep, Inc. (Elysian, Minn.) and dissolved in a polyethylene glycol vehicle (PEG 300). Mice were administered, by gavage, trans-palmitoleate in doses ranging from 200 mg/kg/day to 2 g/kg/day for 5 weeks. […] In OB/OB mice, after 2 weeks of treatment, plasma lipid analysis was determined from samples taken after 6 hr of fasting, 30 hr after last trans-palmiloleate administration. Additionally, research diets comprising mouse chow at 2% trans-palmitoleate % total food weight can be formulated.

C2C12 myotubes = test: Glucose uptake assay in differentiated C2C12 myotubes; type: cell-based; settings: 0.25 mM for 6 hr, values only in FIG. 1
Procedure: FIG. 1 is a bar graph showing data from differentiated C2C12 myotubes that were incubated with control medium, or medium with 0.25 mM palmitate (C16) or trans-16:1n7-palmitoleate for 6 hours; glucose uptake was assayed as described herein.
C2C12 myoblasts were maintained in 20% fetal bovine serum. To differentiate the myoblasts, cells were plated in 12-well plates coated with 0.2% gelatin and medium changed to 2% horse serum upon confluence. Five days post-differentiation, C2C12 myotubes were incubated in serum-free medium with 0.5% bovine serum albumin (Sigma) and indicated fatty acids at a final concentration of 0.25 mM for 6 hr. Glucose uptake assay was performed as described previously, with modifications. Somwar et al., 276 J. Biol. Chem. 46079 (2001). Briefly, cells were washed twice with 500 μl warm Krebs-Ringer-Hepes (KRH) buffer and 1 ml of KRH buffer was added into each wells. ^3H 2-D-Glucose (0.5 μCi/well) was added and cells were kept in incubator for 10 min. Medium was then removed and cells washed twice with ice-cold KRH buffer. Cells were plated on ice and lysed in 500 μl 0.1% SDS. Aliquots of 400 μl cell lysate were used for scintillation counting and protein assay quantification assay was performed on the rest of cell lysate.

Q: What does the source list for `CCCCCC/C=C/CCCCCCCC(=O)O` [trans-palmitoleate, trans-C16:1n7-palmitoleic acid]?
A: extreme-quintile RR of new-onset diabetes ([1]; additional adjustment for levels of both 15:0 and 17:0): 0.39; extreme-quintile RR of incident diabetes ([1]; additional adjustment for vaccenic acid (trans-18:1n-7)): 0.43; extreme-quintile RR of incident diabetes ([1]; men): 0.29; RR of diabetes per SD ([1]; per each higher SD of the plasma phospholipid fatty acid, multivariable-adjusted (covariates as in Table 4)): 0.72; multivariable-adjusted RR of diabetes lower per each higher SD ([1]; per each higher SD of trans-palmitoleate): 28%; No. of incident cases of diabetes mellitus ([1]; quintile I, 5,595 person-years of follow-up): 93; Hazard ratio (RR) of incident diabetes, age- and sex-adjusted ([1]; quintile II vs quintile I): 0.84; Hazard ratio (RR) of incident diabetes, multivariate-adjusted ([1]; quintile II vs quintile I): 0.79; No. of incident cases of diabetes mellitus ([1]; quintile II, 5,435 person-years of follow-up): 68; Hazard ratio (RR) of incident diabetes, age- and sex-adjusted ([1]; quintile III vs quintile I): 0.88; Hazard ratio (RR) of incident diabetes, multivariate-adjusted ([1]; quintile III vs quintile I): 0.89; No. of incident cases of diabetes mellitus ([1]; quintile III, 5,556 person-years of follow-up): 59; Hazard ratio (RR) of incident diabetes, age- and sex-adjusted ([1]; quintile IV vs quintile I): 0.44; Hazard ratio (RR) of incident diabetes, multivariate-adjusted ([1]; quintile IV vs quintile I): 0.41; No. of incident cases of diabetes mellitus ([1]; quintile IV, 5,811 person-years of follow-up): 46; Hazard ratio (RR) of incident diabetes, age- and sex-adjusted ([1]; quintile V vs quintile I): 0.36; Hazard ratio (RR) of incident diabetes, multivariate-adjusted ([1]; quintile V vs quintile I): 0.38; No. of incident cases of diabetes mellitus ([1]; quintile V, 5,469 person-years of follow-up): 38; extreme-quintile RR of incident diabetes ([1]; women): 0.41; tolerability [2]: well-tolerated, with no ill effects observed; glucose uptake (C2C12 myotubes): Positive Glucose Uptake
